One assay has as its target T1, human recombinant GR (Homo sapiens, UniProt P04150).
T1 construct: purchased PanVera P2812
T1 sequence (P04150 1-777): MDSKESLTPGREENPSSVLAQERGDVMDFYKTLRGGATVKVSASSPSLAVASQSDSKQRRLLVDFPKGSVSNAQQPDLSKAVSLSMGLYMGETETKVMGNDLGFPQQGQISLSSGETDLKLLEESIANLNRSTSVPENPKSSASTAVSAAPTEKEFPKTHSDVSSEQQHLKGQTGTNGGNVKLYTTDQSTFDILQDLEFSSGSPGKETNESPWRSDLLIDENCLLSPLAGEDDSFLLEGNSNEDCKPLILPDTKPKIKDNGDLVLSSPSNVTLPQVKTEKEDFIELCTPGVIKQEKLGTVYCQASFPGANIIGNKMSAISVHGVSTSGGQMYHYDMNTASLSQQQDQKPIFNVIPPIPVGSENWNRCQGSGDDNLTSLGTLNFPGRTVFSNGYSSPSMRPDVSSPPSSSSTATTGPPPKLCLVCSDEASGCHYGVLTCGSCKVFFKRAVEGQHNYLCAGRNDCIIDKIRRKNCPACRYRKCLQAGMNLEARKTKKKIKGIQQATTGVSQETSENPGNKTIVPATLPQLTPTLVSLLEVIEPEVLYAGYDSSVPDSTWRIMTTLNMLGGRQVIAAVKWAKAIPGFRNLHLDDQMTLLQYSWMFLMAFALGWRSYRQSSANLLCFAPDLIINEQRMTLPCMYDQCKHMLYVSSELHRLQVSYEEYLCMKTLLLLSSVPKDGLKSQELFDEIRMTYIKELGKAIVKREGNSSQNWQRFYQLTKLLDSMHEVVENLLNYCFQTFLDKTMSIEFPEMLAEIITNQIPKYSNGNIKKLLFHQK
Kind of assay: Human glucocorticoid receptor (GR) fluorescence polarisation (FP) binding assay. The procedure: Human Glucocorticoid Receptor (GR) Fluorescence Polarisation (FP) Binding Assay
The following is a description of a FP assay for measuring compound inhibition of labelled glucocorticoid binding to the human recombinant GR.
The binding affinity of test compounds was determined using a FP binding assay using human recombinant GR (PanVera P2812) and a fluorescent labelled glucocorticoid ligand (Fluorome GS Red) (PanVera P2894). The presence of inhibitors prevents the formation of a GS Red/GR complex resulting in a decrease in the measured polarisation value. The change in polarisation value in the presence of test compounds is used to calculate the binding affinity of the compound for GR.
This assay was performed in 384 well, black, round-bottom, polypropylene micro titre plates in a final volume of 20 μl. The assay contained 5 μl 1 nM GR (final concentration), 5 μl 0.5 nM Fluorome GS Red (final concentration) in the presence of 10 μl test compounds. Positive control wells (high polarisation) receive, 10 μl 2% (v: v) DMSO vehicle (1% (v/v) final concentration)+5 μl 1 nM GR and 5 μl 0.5 nM Fluorome GS Red. […] Assay blank background wells (used for normalisation) receive 15 μl 1× GS screening buffer+5 μl GR.
Compounds were prepared as solubilised solids at 10 mM in DMSO. On the day of assay, an 8 point half-log serial dilution (55 μl DMSO+25 μl compound solution) was prepared. A 1:50 dilution (1 μl compound solution+49 μl 1× GR screening buffer) was prepared for each compound. The compounds were prepared at 2× final assay concentration.
The plates were mixed and incubated for 4 hour at room temperature.
10× GR screening buffer (100 mM potassium phosphate pH 7.4, 200 mM Na2MoO4, 1 mM EDTA, 20% (v/v) DMSO). To prepare 1× GR screening buffer, combine 1 ml 10× GR screening buffer (PanVera P2814)+1 ml stabilising peptide (PanVera P2815)+7.95 ml 4° C. MQ water. Add 50 μl 1M DTT, vortex and place on ice until use.
In general terms: In fluorescence polarisation assays a small probe gives low polarisation when free and higher when bound to something large.

Assay [1] relates to induction of TAT by dexamethasone in HepG2 cells. As to the kind of experiment: HepG2 tyrosine aminotransferase (TAT) assay. The class given is cell-based, human. The procedure:
Example 21. HepG2 Tyrosine Aminotransferase (TAT) Assay
Glucocorticoid mediated activation of TAT occurs by transactivation of glucocorticoid response elements in the TAT promoter by glucocorticoid receptor agonist complex.
TAT activity was measured as outlined in the literature by A. Ali et al., J. Med. Chem., 2004, 47, 2441-2452.
HepG2 cells were cultured using MEME media supplemented with 10% (v/v) foetal bovine serum; 2 mM L-glutamine and 1% (v/v) NEAA at 37° C., 5%/95% (v/v) CO2/air. The HepG2 cells were counted and adjusted to yield a density of 0.125×10^6 cells/ml in RPMI 1640 without phenol red, 10% (v/v) charcoal stripped FBS, 2 mM L-glutamine and seeded at 25,000 cells/well in 200 μl into 96 well, sterile, tissue culture micro titre plates, and incubated at 37° C., 5% CO2 for 24 hours
Growth media was removed and replaced with assay media {RPMI 1640 without phenol red, 2 mM L-glutamine+10 μM forskolin}. […] Compounds were serially half log diluted in 100% (v/v) dimethylsupfoxide from a 10 mM stock.
HepG2 cells were then lysed with 30 μl of cell lysis buffer containing a protease inhibitor cocktail for 15 minutes at 4° C. 155 μl of substrate mixture was then added containing 5.4 mM Tyrosine sodium salt, 10.8 mM alpha ketoglutarate and 0.06 mM pyridoxal 5′ phosphate in 0.1M potassium phosphate buffer (pH 7.4). After 2 hours incubation at 37° C. the reaction was terminated by the addition of 15 μl of 10M aqueous potassium hydroxide solution, and the plates incubated for a further 30 minutes at 37° C. The TAT activity product was measured by absorbance at […].
[compound] and fitting the data to a 4 parameter logistic equation.

The mark [2] stands for this setting: human recombinant GR, fluorescence polarisation binding assay, read-out: GR binding.
The mark [3] stands for this setting: HepG2 cells, challenge of 100 nM dexamethasone, Ki from IC50 by Cheng and Prusoff equation.

Read-outs that look alike come from different tables or passages of the source. Bounds are passed on as bounds.

In the case of `O=C(c1nccs1)[C@]12Cc3cnn(-c4ccc(F)cc4)c3C=C1CCN(S(=O)(=O)CC1CCCO1)C2` (mixture of isomers) [Example 2B, ((4a R)-1-(4-fluorophenyl)-6-((((R/S)-tetrahydrofuran-2-yl)methyl)sulfonyl)-4,4a,5,6,7,8-hexahydro-1H-pyrazolo[3,4-g]isoquinolin-4a-yl)(thiazol-2-yl)methanone], the figures for the Ki (at human recombinant GR (setting [2]); in assay [1] (setting [3])) were 0.5 to 1 nM and at least 100 nM, respectively.

Consider `Cn1ncc(S(=O)(=O)N2CCC3=Cc4c(cnn4-c4ccc(F)cc4)C[C@]3(C(=O)c3cscn3)C2)n1` (single isomer, unassigned) [Example 11DA], for which the Ki at human recombinant GR (setting [2]) was below 0.5 nM; in assay [1] (setting [3]), below 20 nM.

`Cn1ncc(S(=O)(=O)N2CCC3=Cc4c(cnn4-c4ccc(F)cc4)C[C@]3(C(=O)c3ccccn3)C2)n1` (single isomer, unassigned) [Example 11DB]: the results for the Ki (at human recombinant GR (setting [2]); in assay [1] (setting [3])) were below 0.5 nM and below 20 nM, respectively.

Take `CCCn1ncc(S(=O)(=O)N2CCC3=Cc4c(cnn4-c4ccc(F)cc4)C[C@]3(C(=O)c3cc(C(F)(F)F)ccn3)C2)n1` (single isomer, unassigned) [Example 11DC]: the figures for the Ki (on human recombinant GR (setting [2]); in assay [1] (setting [3])) were 0.5 to 1 nM and below 20 nM, respectively.

As for `CCCn1ncc(S(=O)(=O)N2CCC3=Cc4c(cnn4-c4ccc(F)cc4)C[C@]3(C(=O)c3nccs3)C2)n1` (single isomer, unassigned) [Example 12AA], the Ki at human recombinant GR (setting [2]) was below 0.5 nM; in assay [1] (setting [3]), 20 to 100 nM.

For the compound `Cn1ncc(S(=O)(=O)N2CCC3=Cc4c(cnn4-c4ccc(F)cc4)C[C@]3(C(=O)c3nccs3)C2)n1` (single isomer, unassigned) [Example 12Z], the Ki on human recombinant GR (setting [2]) was below 0.5 nM; in assay [1] (setting [3]), at least 100 nM.

With `O=C(c1ccccn1)[C@]12Cc3cnn(-c4ccc(F)cc4)c3C=C1CCN(S(=O)(=O)c1ccc(C(F)(F)F)cc1)C2` [Example 1, (R)-(1-(4-fluorophenyl)-6-((4-(trifluoromethyl)phenyl)sulfonyl)-4,4a,5,6,7,8-hexahydro-1H-pyrazolo[3,4-g]isoquinolin-4a-yl)(pyridin-2-yl)methanone], the values for the Ki (at human recombinant GR; in assay [1]) were below 0.5 nM and below 20 nM, respectively.

For the compound `Cn1ccnc1C(=O)[C@]12Cc3cnn(-c4ccc(F)cc4)c3C=C1CCN(S(=O)(=O)c1ccc(C(F)(F)F)cc1)C2` [Example 1A, (R)-(1-(4-fluorophenyl)-6-((4-(trifluoromethyl)phenyl)sulfonyl)-4,4a,5,6,7,8-hexahydro-1H-pyrazolo[3,4-g]isoquinolin-4a-yl)(1-methyl-1H-imidazol-2-yl)methanone], the Ki at human recombinant GR (setting [2]) lay within 0.5 to 1 nM; in assay [1] (setting [3]) it was 20 to 100 nM.

On to `O=C(c1cccnc1)[C@]12Cc3cnn(-c4ccc(F)cc4)c3C=C1CCN(S(=O)(=O)c1ccc(C(F)(F)F)cc1)C2` [Example 1B, (R)-(1-(4-fluorophenyl)-6-((4-(trifluoromethyl)phenyl)sulfonyl)-4,4a,5,6,7,8-hexahydro-1H-pyrazolo[3,4-g]isoquinolin-4a-yl)(pyridin-3-yl)methanone], for which the Ki at human recombinant GR was 0.5 to 1 nM; in assay [1] it was above 100 nM.

`O=C(c1nccs1)[C@]12Cc3cnn(-c4ccc(F)cc4)c3C=C1CCN(S(=O)(=O)c1ccc(C(F)(F)F)cc1)C2` [Example 1C, (R)-(1-(4-fluorophenyl)-6-((4-(trifluoromethyl)phenyl)sulfonyl)-4,4a,5,6,7,8-hexahydro-1H-pyrazolo[3,4-g]isoquinolin-4a-yl)(thiazol-2-yl)methanone]: the Ki was below 0.5 nM on human recombinant GR and below 20 nM in assay [1].

Take `Cc1nnc(C(=O)[C@]23Cc4cnn(-c5ccc(F)cc5)c4C=C2CCN(S(=O)(=O)c2ccc(C(F)(F)F)cc2)C3)o1` [Example 1D, (R)-(1-(4-fluorophenyl)-6-((4-(trifluoromethyl)phenyl)sulfonyl)-4,4a,5,6,7,8-hexahydro-1H-pyrazolo[3,4-g]isoquinolin-4a-yl)(5-methyl-1,3,4-oxadiazol-2-yl)methanone]: the Ki was above 1 nM on human recombinant GR (setting [2]) and at least 100 nM in assay [1] (setting [3]).

As for `O=C(c1cocn1)[C@]12Cc3cnn(-c4ccc(F)cc4)c3C=C1CCN(S(=O)(=O)c1ccc(C(F)(F)F)cc1)C2` [Example 1E, (R)-(1-(4-fluorophenyl)-6-((4-(trifluoromethyl)phenyl)sulfonyl)-4,4a,5,6,7,8-hexahydro-1H-pyrazolo[3,4-g]isoquinolin-4a-yl)(oxazol-4-yl)methanone], the Ki is below 0.5 nM at human recombinant GR and 20 to 100 nM in assay [1] (setting [3]).

As to `O=C(c1ncco1)[C@]12Cc3cnn(-c4ccc(F)cc4)c3C=C1CCN(S(=O)(=O)c1ccc(C(F)(F)F)cc1)C2` [Example 1F, (R)-(1-(4-fluorophenyl)-6-((4-(trifluoromethyl)phenyl)sulfonyl)-4,4a,5,6,7,8-hexahydro-1H-pyrazolo[3,4-g]isoquinolin-4a-yl)(oxazol-2-yl)methanone], the Ki was below 0.5 nM on human recombinant GR (setting [2]) and 20 to 100 nM in assay [1] (setting [3]).

Take `O=C(c1ccccn1)[C@]12Cc3cnn(-c4ccc(F)cc4)c3C=C1CCN(S(=O)(=O)c1cncc(N3CCCCC3)c1)C2` [Example 10A, (R)-(1-(4-fluorophenyl)-6-((5-(piperidin-1-yl)pyridin-3-yl)sulfonyl)-4,4a,5,6,7,8-hexahydro-1H-pyrazolo[3,4-g]isoquinolin-4a-yl)(pyridin-2-yl)methanone]: the Ki at human recombinant GR (setting [2]) was below 0.5 nM.

As for `Cc1cnc(C(=O)[C@]23Cc4cnn(-c5ccc(F)cc5)c4C=C2CCN(S(=O)(=O)c2ccc(Cl)c(Cl)c2)C3)s1` [Example 12O, (R)-(6-((3,4-dichlorophenyl)sulfonyl)-1-(4-fluorophenyl)-4,4a,5,6,7,8-hexahydro-1H-pyrazolo[3,4-g]isoquinolin-4a-yl)(5-methylthiazol-2-yl)methanone], at human recombinant GR (setting [2]), the Ki was below 0.5 nM.

On to `Cn1cc(S(=O)(=O)N2CCC3=Cc4c(cnn4-c4ccc(F)cc4)C[C@]3(C(=O)c3ccccn3)C2)ccc1=O` [Example 17, (R)-5-((1-(4-fluorophenyl)-4a-picolinoyl-4a,5,7,8-tetrahydro-1H-pyrazolo [3,4-g]isoquinolin-6 (4H)-yl)sulfonyl)-1-methylpyridin-2 (1H)-one], for which, in assay [1] (setting [3]), the Ki is at least 100 nM.

Source of the values: US12226412B2, “Heteroaryl-ketone fused azadecalin glucocorticoid receptor modulators” (Corcept Therapeutics, Inc., priority 2012, dated 2025).
